The subject of one assay is normal cell line (ATCC). The assay can be described thus: Cell-penetrating ability in normal cell line (FACS and confocal laser scanning microscopy of FITC fluorescence). The class given is cell-based. The settings on record: FITC label. How it is done: (§1) In order to examine the cell-penetrating ability of the target-activated cell/tissue-penetrating peptide prepared in Example 1, the C-terminal region of the prepared peptide was labeled with the fluorescence marker FITC, and the fluorescence-labeled peptide was inoculated into each of a normal cell line (ATCC) and a tumor cell line (CT-26, KCLB (Korea cell line bank) 80009).
(§2) 1 hour after the inoculation, the fluorescence intensities of the cell lines were measured using FACS, and the results of the measurement are shown in FIG. 2. […] In FIG. 2, “(a)” indicates the fluorescence intensity of the normal cell line, and “(b)” indicates the fluorescence intensity of the tumor cell line.
(§3) Also, whether the peptide penetrated into the cells was observed by a confocal laser scanning microscope. […] In FIG. 3, “(a)” indicates the cell penetration of the peptide in the tumor cell line group, and “(b)” indicates the cell penetration of the peptide in the normal cell line group.
(§4) The target-activated cell/tissue-penetrating peptide-anticancer protein conjugate prepared in Example 2 above was inoculated into each of a normal cell line (ATCC) and a tumor cell line (CT-26, KCLB (Korea cell line bank) 80009). 1 hour after the inoculation, the penetration of the peptide-gelonin conjugate into the cells was observed by a confocal laser scanning microscope (FIG. 4).

For another assay, the system named is tumor cell line (CT-26). The assay can be described thus: Cell-penetrating ability in tumor cell line (FACS and confocal laser scanning microscopy of FITC fluorescence). The class given is cell-based, mouse. How it is done:
as §1, §2, §3, §4

Where no end group is shown, it is not given here.

In the case of “NH2-EEEEEEEPLGLAG-VSRRRRRRGGRRRR-C-COONH2 (H-EEEEEEEPLGLAGVSRRRRRRGGRRRRC-NH2) [masking domain (EEEEEEE), MMP-cleavable spacer (PLGLAG) and LMWP as protein transduction domain]”, the “fluorescence intensity of the normal cells (FACS)” value in the assay with normal cell line (ATCC) is reported as “the same as that before application of the penetrating peptide”.

Turning to “fluorescence-labeled peptide: peptide of Example 1 with the C-terminal region labeled with the fluorescence marker FITC (H-EEEEEEEPLGLAGVSRRRRRRGGRRRRC; also: FITC label on C-terminal region)”, the “fluorescence intensity of the tumor cells (FACS)” value in the assay with tumor cell line (CT-26) (CT-26, 1 hour after inoculation, FITC label) was “increase”. Besides, the “penetration into the cells observed by confocal laser scanning microscope, tumor cell line” value with tumor cell line (CT-26) (CT-26, FITC label, nuclei stained with Hoechst 33342) is “observed”. Moreover, the “penetration into the cells observed by confocal laser scanning microscope, normal cell line” value in the assay on normal cell line (ATCC) (nuclei stained with Hoechst 33342) was “not observed”.

The values above are taken from patent US8796219B2, “Target-activated cell/tissue-penetrating peptide for delivery of impermeable compounds and use thereof” (Nano Intelligent Biomedical Engineering Corporation Co. Ltd, priority 2009, dated 2014).
